This passage reports IC50 results from patent US11613533B2, “Compounds useful for inhibiting RET kinase” (Eli Lilly and Company, priority 2020, dated 2023).

Changes are numbered by the printed parent chain. Bounds are passed on as bounds.

The target of assay [1] is T1, V804M mutant RET kinase (N-terminal GST tagged recombinant human V804M mutant RET cytoplasmic domain, aa 658-end) (Homo sapiens, UniProt P07949, V804M).
T1 construct: human V804M mutant RET cytoplasmic domain (aa 658-end); GST (N); purchased Millipore 14-760
T1 sequence (P07949 658-1114 V804M limits assumed): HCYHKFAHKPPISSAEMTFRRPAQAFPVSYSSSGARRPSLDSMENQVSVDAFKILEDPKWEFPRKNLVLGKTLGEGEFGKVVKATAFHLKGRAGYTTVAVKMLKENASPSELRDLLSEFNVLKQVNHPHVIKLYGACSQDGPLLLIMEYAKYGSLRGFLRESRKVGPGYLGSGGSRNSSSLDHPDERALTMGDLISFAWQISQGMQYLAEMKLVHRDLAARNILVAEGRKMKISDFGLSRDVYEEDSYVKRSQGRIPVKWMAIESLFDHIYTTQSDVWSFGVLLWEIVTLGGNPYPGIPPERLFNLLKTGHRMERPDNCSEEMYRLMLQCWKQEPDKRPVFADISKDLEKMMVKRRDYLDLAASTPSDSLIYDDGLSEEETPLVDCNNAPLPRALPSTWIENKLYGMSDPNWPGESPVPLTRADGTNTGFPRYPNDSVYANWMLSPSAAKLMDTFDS
The assay can be described thus: RET enzyme assay (HTRF KinEASE TK), V804M. The class given is biochemical. Conditions: 1 mM ATP, 40 min incubation at 22° C. On the procedure:
(§1) Assay A: RET Enzyme Assay
(§2) Compounds of formulas I, II, or III are screened for their ability to inhibit wildtype, V804M, and G810S mutant RET kinase using CisBio's HTRF® KinEASE™TK assay technology. N-terminal GST tagged recombinant human RET cytoplasmic domain (aa 658-end) from Eurofins ([…]; Catalog No. 14-570M) or N-terminal GST tagged recombinant human V804M mutant RET cytoplasmic domain (aa 658-end) from Millipore (1.25 nM enzyme; Catalog No. 14-760) or N-Terminal GST-tagged recombinant human G810S (aa-658-end) (1.25 nM Enzyme; produced in insect cells) is incubated with 62.5 nM TK-substrate biotin (CisBio, part of Catalog No. 62TK0PEC) and 1 mM ATP along with test compound (0.4% final DMSO in the assay) in a 1× Cisbio enzymatic buffer consisting of […], 5 mM MgCl2, 0.04% BSA and 0.05% Tween20 in a volume of 10 μL. Compounds are typically prepared in a threefold serial dilution in DMSO and added to the assay to give the appropriate final concentration. After a 40-60 min (40 min for V804M, 60 min for WT and G810S) incubation at 22° C., the reaction is quenched by adding quench solution (10 μL) containing 7.8 nM Streptavidine-XL665 and 0.5×TK-ab-Cryptate in HTRF detection buffer (all from CisBio, part of Cat. No. 62TK0PEC). After a 60-80 min incubation (60 minutes for WT, 80 minutes for V804M and G810S) at 22° C., the extent of reaction is determined using a PHERastar plate reader via HTRF detection at excitation/emission 337/665 nm. Percent of inhibition is calculated with 0% inhibition referring to control conditions containing no compound (0.4% DMSO only) and 100% inhibition represented by conditions containing no enzyme. The % inhibition values are fit to a 4 parameter logistic curve, and the determined IC50 value is defined as the estimated concentration of inhibitor at the inflexion point of the fitted curve.
(In general: In TR-FRET formats the signal depends on donor and acceptor labels being close together.)

The target in assay [2] is T2, G810S mutant RET kinase (N-Terminal GST-tagged recombinant human G810S, aa-658-end) (Homo sapiens, UniProt P07949, G810S).
T2 construct: recombinant human G810S (aa-658-end); GST (N); made in house; host or cells: insect cells
T2 sequence (P07949 658-1114 G810S limits assumed): T1 sequence (P07949 658-1114 V804M limits assumed) with M147V, G153S
The assay can be described thus: RET enzyme assay (HTRF KinEASE TK), G810S. The class given is biochemical. The note with it: 1 mM ATP, 60 min incubation at 22° C. On the procedure:
as §1, §2

In the case of `CC(C(=O)Nc1cc(C(C)(C)C(F)(F)F)no1)c1ccc(-c2nn(C(C)C)c(N)c2C(N)=O)cn1` (single isomer, unassigned; isomer 2) [Example 90, 5-Amino-1-isopropyl-3-[6-[1-methyl-2-oxo-2-[[3-(2,2,2-trifluoro-1,1-dimethyl-ethyl)isoxazol-5-yl]amino]ethyl]-3-pyridyl]pyrazole-4-carboxamide, Isomer 2], the IC50 in assay [1] and in assay [2] was < 100 nM each time.
As to `CC(C(=O)Nc1cc(-c2ccc(Cl)cc2Cl)no1)c1ccc(-c2nn(C(C)C)c(N)c2C(N)=O)cn1` (single isomer, unassigned; isomer 2) [Example 94, 5-Amino-1-isopropyl-3-[6-[2-[[3-(2,4-dichlorophenyl)isoxazol-5-yl]amino]-1-methyl-2-oxo-ethyl]-3-pyridyl]pyrazole-4-carboxamide, Isomer 2], the IC50 in assay [1] and in assay [2] was < 100 nM throughout.

The IC50 is the concentration that gives 50% inhibition.
